In ChEMBL document CHEMBL5726706, “C-linked heterocycloaklyl substituted pyrimidines and their uses” (2018):

Molecular target: T1, Mitogen-activated protein kinase kinase kinase 12 (Homo sapiens, UniProt Q12852)
T1 sequence (Q12852 whole entry): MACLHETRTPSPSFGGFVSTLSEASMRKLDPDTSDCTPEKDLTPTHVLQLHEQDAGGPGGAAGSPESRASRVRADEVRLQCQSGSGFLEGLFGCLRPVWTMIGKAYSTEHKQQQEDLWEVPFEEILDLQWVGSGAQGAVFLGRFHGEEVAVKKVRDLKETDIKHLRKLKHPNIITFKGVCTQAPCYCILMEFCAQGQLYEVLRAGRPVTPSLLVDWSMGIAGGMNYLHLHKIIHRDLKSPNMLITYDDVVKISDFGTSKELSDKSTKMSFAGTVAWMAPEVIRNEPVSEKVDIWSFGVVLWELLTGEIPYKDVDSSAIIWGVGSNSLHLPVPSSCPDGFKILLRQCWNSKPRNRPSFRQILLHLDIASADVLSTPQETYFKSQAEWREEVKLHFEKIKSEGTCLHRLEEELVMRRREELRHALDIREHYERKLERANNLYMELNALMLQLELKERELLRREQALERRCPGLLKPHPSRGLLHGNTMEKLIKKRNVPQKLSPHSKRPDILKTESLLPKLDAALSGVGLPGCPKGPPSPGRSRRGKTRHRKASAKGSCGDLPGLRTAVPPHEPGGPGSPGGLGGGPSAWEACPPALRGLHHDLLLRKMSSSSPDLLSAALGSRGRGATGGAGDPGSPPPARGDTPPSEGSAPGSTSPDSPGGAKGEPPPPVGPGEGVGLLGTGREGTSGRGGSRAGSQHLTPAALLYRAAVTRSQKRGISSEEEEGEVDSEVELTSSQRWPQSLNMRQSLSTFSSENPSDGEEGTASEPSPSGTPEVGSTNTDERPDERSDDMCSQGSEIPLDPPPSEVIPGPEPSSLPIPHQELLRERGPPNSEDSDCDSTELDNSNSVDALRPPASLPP
Assay: TR-FRET assay: DLK kinase reactions (20 μL) containing 5 nM N-terminally GST-tagged DLK (catalytic domain amino acid 1-520) (Carna Bioscience), 40 nM N-terminally HIS-tagged MKK4 K131M substrate, and 30 μM ATP in kinase reaction buffer (50 mM HEPES, pH 7.5, 0.01% Triton X-100, 0.01% Bovine γ-Globulins, 2 mM DTT, 10 mM MgCl2 and 1 mM EGTA), and testing compound 1:3 serial diluted starting at 20 uM were incubated at ambient temperature for 60 minutes in 384 well OptiPlate (Perkin Elmer). To quench kinase reactions and detect phosphorylated MKK4, 15 μL of TR-FRET antibody mixture containing 2 nM anti-phosphorylated MKK4 labeled with Europium cryptate (Cisbio) and 23 nM anti-HIS labeled with D2 (Cisbio) in detection buffer (25 mM Tris pH 7.5, 100 mM NaCl, 100 mM EDTA, 0.01% Tween-20, and 200 mM KF) was added to the reaction mixture. The detection mixture was incubated for 3 hours at ambient temperature and the TR-FRET was detected with an EnVision multilabel plate reader (Perkin-Elmer) using the LANCE/DELFIA Dual Enh label from Perkin-Elmer (excitation filter: UV2 (TRF) 320 and emission filters: APC 665 and Europium 615).

Ki [nM]	SMILES
639	Cc1ccnc(Nc2cc(C3CCCN(C(=O)Cc4ccccc4)C3)nc(C)n2)c1 (configuration not stated)
54.8	COC[C@H]1CCCN1c1nc(Nc2cc(C(F)(F)F)ccn2)cc(C2CCN(C(C)=O)CC2)n1
